Laboratory results as given in PubChem BioAssay AID1919005 (Molecular Pharmacology Branch, DTP, NCI, 2023).

Tested on: 855422-203-R-J1-PDC complex spheroid growth
Experiment: Anticancer human tumor 855422-203-R-J1-PDC patient-derived bladder carcinoma cell line growth inhibition [AhR]
Details: for IC50: curve of first compound; for viability, T/C: stronger effect = lower value
How it was run: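 Complex tumor spheroids co-cultured with HUVEC and human MSC stroma; AhR antagonists tested in combination with standard-of-care and investigational agents. Top concentration at or near clinical Cmax (else 10 microM), half-log dilutions; growth expressed as percent test/control.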

[1] = second compound 0.1 µM, first compound 0.0316 µM
[2] = second compound 0.1 µM, first compound 0.1 µM
[3] = second compound 0.1 µM, first compound 0.316 µM
[4] = second compound 0.1 µM, first compound 1 µM
[5] = second compound 0.1 µM, first compound 3.16 µM
[6] = second compound 0.1 µM, first compound 10 µM
[7] = second compound 0.316 µM, first compound 0.0316 µM
[8] = second compound 0.316 µM, first compound 0.1 µM
[9] = second compound 0.316 µM, first compound 0.316 µM
[10] = second compound 0.316 µM, first compound 1 µM
[11] = second compound 0.316 µM, first compound 3.16 µM
[12] = second compound 0.316 µM, first compound 10 µM
[13] = second compound 1 µM, first compound 0.0316 µM
[14] = second compound 1 µM, first compound 0.1 µM
[15] = second compound 1 µM, first compound 0.316 µM
[16] = second compound 1 µM, first compound 1 µM
[17] = second compound 1 µM, first compound 3.16 µM
[18] = second compound 1 µM, first compound 10 µM
[19] = second compound 3.16 µM, first compound 0.0316 µM
[20] = second compound 3.16 µM, first compound 0.1 µM
[21] = second compound 3.16 µM, first compound 0.316 µM
[22] = second compound 3.16 µM, first compound 1 µM
[23] = second compound 3.16 µM, first compound 3.16 µM
[24] = second compound 3.16 µM, first compound 10 µM
[25] = second compound 10 µM, first compound 0.0316 µM
[26] = second compound 10 µM, first compound 0.1 µM
[27] = second compound 10 µM, first compound 0.316 µM
[28] = second compound 10 µM, first compound 1 µM
[29] = second compound 10 µM, first compound 3.16 µM
[30] = second compound 10 µM, first compound 10 µM
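Further: spheroids exposed to agents for seven days before readout.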
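Wherever viability, T/C is given: percent of DMSO vehicle control luminescence viability.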

| IC50 (second compound 0.1 µM) | IC50 (second compound 0.316 µM) | IC50 (second compound 1 µM) | IC50 (second compound 3.16 µM) | IC50 (second compound 10 µM) | Compound | viability, T/C [1] | viability, T/C [2] | viability, T/C [3] | viability, T/C [4] | viability, T/C [7] | viability, T/C [8] | viability, T/C [9] | viability, T/C [10] | viability, T/C [13] | viability, T/C [14] | viability, T/C [15] | viability, T/C [16] | viability, T/C [19] | viability, T/C [20] | viability, T/C [21] | further results |
| --- | --- | --- | --- | --- | --- | --- | --- | --- | --- | --- | --- | --- | --- | --- | --- | --- | --- | --- | --- | --- | --- |
| < 31.6 nM | < 31.6 nM | < 31.6 nM | < 31.6 nM | < 31.6 nM | COc1cccc2c1C(=O)c1c(O)c3c(c(O)c1C2=O)CC(O)(C(=O)CO)CC3OC1CC(N)C(O)C(C)O1 (stereo not given) + Cc1cncc(-c2nc(NCCc3c[nH]c4ccccc34)c3ncn(C(C)C)c3n2)c1 | 19.5% | 15.4% | 2.05% | 0.85% | 22.4% | 13.7% | 1.65% | 0.73% | 17.8% | 10.3% | 4.93% | 4.6% | 17.9% | 7.51% | 2.13% | viability, T/C [5]: 1.02%; viability, T/C [6]: 1.75%; viability, T/C [11]: 0.93%; viability, T/C [12]: 1.37%; viability, T/C [17]: 0.74%; viability, T/C [18]: 1.14%; viability, T/C [22]: 1.95%; viability, T/C [23]: 1.19%; viability, T/C [24]: 0.94%; viability, T/C [25]: 4.02%; viability, T/C [26]: 1.33%; viability, T/C [27]: 0.55%; viability, T/C [28]: 0.22%; viability, T/C [29]: 0.28%; viability, T/C [30]: 0.3% |
| > 1000 nM | > 1000 nM | > 1000 nM | > 1000 nM | > 1000 nM | Nc1ncn(C2CC(O)C(CO)O2)c(=O)n1 (stereo not given) + CC(CO)NC(=O)c1cc(-c2ccc(Cl)cc2)nn(-c2cnn(C)c2)c1=O | 85% | 85.3% | 73% | 76.3% | 93.3% | 83.6% | 80.7% | 78.2% | 95.7% | 87.4% | 82.5% | 80.2% | 90.2% | 79.8% | 79.5% | viability, T/C (second compound 0.1 µM, first compound 0.00316 µM): 92.6%; viability, T/C (second compound 0.1 µM, first compound 0.01 µM): 92.2%; viability, T/C (second compound 0.316 µM, first compound 0.00316 µM): 94.6%; viability, T/C (second compound 0.316 µM, first compound 0.01 µM): 90.3%; viability, T/C (second compound 1 µM, first compound 0.00316 µM): 103%; viability, T/C (second compound 1 µM, first compound 0.01 µM): 96.6%; viability, T/C (second compound 3.16 µM, first compound 0.00316 µM): 95.3%; viability, T/C (second compound 3.16 µM, first compound 0.01 µM): 93.9%; viability, T/C [22]: 80.9%; viability, T/C (second compound 10 µM, first compound 0.00316 µM): 96.5%; viability, T/C (second compound 10 µM, first compound 0.01 µM): 88.7%; viability, T/C [25]: 88.3%; viability, T/C [26]: 91.5%; viability, T/C [27]: 84.8%; viability, T/C [28]: 76.3% |
| 1480 nM | 1390 nM | 1140 nM | 494 nM | < 31.6 nM | O=C(C=Cc1cccc(S(=O)(=O)Nc2ccccc2)c1)NO + Cc1cncc(-c2nc(NCCc3c[nH]c4ccccc34)c3ncn(C(C)C)c3n2)c1 | 81.7% | 86.4% | 85.2% | 62.5% | 84.8% | 82.9% | 81.5% | 59.9% | 82.6% | 84.4% | 72% | 53.3% | 73.5% | 82.4% | 66% | viability, T/C [5]: 23.9%; viability, T/C [6]: 0.91%; viability, T/C [11]: 23.5%; viability, T/C [12]: 0.69%; viability, T/C [17]: 23.9%; viability, T/C [18]: 0.75%; viability, T/C [22]: 23.5%; viability, T/C [23]: 12.2%; viability, T/C [24]: 0.58%; viability, T/C [25]: 29.9%; viability, T/C [26]: 36.2%; viability, T/C [27]: 8.93%; viability, T/C [28]: 3.43%; viability, T/C [29]: 1.25%; viability, T/C [30]: 0.31% |
